Assays:
αvβ3 integrin receptor = αvβ3 integrin receptor (Homo sapiens, UniProt P05106+P06756); format: binding
HFL-1 lung fibroblasts = conditions: HFL-1, 100 μM, 24 h incubation
[1] = molecular target: purified human αIIbβ3 integrin receptor (Homo sapiens, UniProt P05106+P08514); format: binding
[2] = test system: NCI-H1975 lung carcinoma cells; test: Cell viability by MTT assay; format: cell-based; conditions: NCI-H1975, 100 μM, 24 h
[3] = test system: AsPC-1 pancreatic carcinoma; test: Cell viability by MTT assay; format: cell-based; conditions: AsPC-1, 100 μM, 24 h
αIIbβ3 integrin = αIIbβ3 integrin (Homo sapiens, UniProt P05106+P08514); test: Hyperpolarized 129Xe NMR binding assay
physchem = format: physicochemical
[4] = 50 μM with 16 μM αIIbβ3 integrin, Tris buffer, 30% glycerol, 0.1% Triton X-100

SMILES | lower affinity compared to c[RGDyK] peptide alone (αvβ3 integrin receptor) | maximum toxicity (HFL-1 lung fibroblasts) [%] | weaker binding compared to c[RGDyK] peptide [1] | maximum toxicity [2] [%] | maximum toxicity [3] [%] | 129Xe NMR chemical shift of "bound" biosensor (αIIbβ3 integrin; [4]) [ppm] | 129Xe NMR chemical shift of "free" biosensor (αIIbβ3 integrin; [4]) [ppm] | 129Xe NMR chemical shift of biosensor alone (αIIbβ3 integrin; 100 μM, Tris buffer (1 mM, pH 7.2)) [ppm] | solubility (physchem) [µM]
C#CCOc1cc2c3cc1OCCOc1cc4c(cc1OC)Cc1cc5c(OC)cc1Cc1cc(c(OC)cc1C4)OCCOc1cc(c(cc1OCC#C)Cc1cc(c(OCc4cn(CCCC[C@@H]6NC(=O)[C@@H](Cc7ccc(O)cc7)NC(=O)[C@H](CC(=O)O)NC(=O)CNC(=O)[C@H](CCCNC(=N)N)NC6=O)nn4)cc1C3)OCCO5)C2 [Biosensor 3] | approximately 4 fold | 40 | approximately 10 fold | 57 | 61 | – | – | – | –
COc1cc2c3cc1OCCOc1cc4c(cc1OCc1cn(CCCC[C@@H]5NC(=O)[C@@H](Cc6ccc(O)cc6)NC(=O)[C@H](CC(=O)O)NC(=O)CNC(=O)[C@H](CCCNC(=N)N)NC5=O)nn1)Cc1cc5c(OCc6cn(CCC(=O)O)nn6)cc1Cc1cc(c(OCc6cn(CCC(=O)O)nn6)cc1C4)OCCOc1cc(c(cc1OC)Cc1cc(c(OC)cc1C3)OCCO5)C2 [Biosensor 5] | – | – | – | – | – | 71.2 | 67.1 | 65.8 | ≤ 250

— publication PMC4214152 (Chemical science (Royal Society of Chemistry : 2010), 2011)
